Structures can show the parent of a compound that is named as a salt.
Molecular target: T1, human metastin receptor hOT7T175 (Homo sapiens, UniProt Q969F8, L364H)
T1 construct: encoding the entire length of human metastin receptor hOT7T175; expressed in transfected cells; host or cells: CHO/dhFr- cells (ATCC #CRL-9096) stably transfected with pAKKO-hOT7T175; clone h175-16 was used as whole cells for FLIPR
Test: binding inhibiting activity: 125I-metastin (40-54) binding to cell membrane fraction of h175 KB34 cells
Details: room temperature 60 minutes, read-out: binding inhibiting activity, represented by the IC50 value
Experimental: cDNA fragments (SEQ ID NO: 2) encoding the entire length of human metastin receptor hOT7T175 were incorporated into expression vector pAKKO1.11H to produce animal cell expression plasmids pAKKO-hOT7T175. CHO/dhFr-cells (ATCC, #CRL-9096) were seeded onto 6 cm culture dishes (Becton Dickinson) at a density of 0.3×10^6 cells/dish, and cultured in the conditions of 48 hours, 37° C. and 5% CO2. 5 μg pAKKO-hOT7T175 plasmid DNA was transfected to the resultant cells by a known method (described in Example 3 of WO 00/24890) using the Cellphect Transfection Kit (Amersham, #27-9268-01). The DNA-transfected cells were cultured in the Dulbecco's modified Eagle medium (DMEM) (Sigma, #D6046) containing 10% dialyzed FBS (Biowest, #S180D), 1× Non-Essential Amino Acid (Invitrogen, #11140-050) and 50 μg/ml Gentamycin (Invitrogen, #15750-060; and cell strains stably expressing the plasmid genes were selected. The obtained 41 clones were treated with the FLIPR assay (in accordance with the method described in Example 3 of WO 00/24890), and the reactivity to the human metastin […] (Nos. 40 to 54 of the human metastin sequence; Peptide Institute, Inc., #4389-v) was evaluated. In the end, h175 KB34 cell strains were selected. By substantially the same method, h175-16 cell strains were also produced.
The h175 KB34 cells were cultured to be on the stage of 40-50% confluency using a cell factory (Nunc, #164327), and then cells were recovered in the following method.
First, the medium was disposed, and the cells were washed twice with 200 ml EDTA/PBS(−). Another 200 ml of EDTA/PBS(−) was added, and the cells were kept still for 20 minutes at room temperature until being peeled off. The cells were recovered into four 50 ml tubes (Becton Dickinson, #352070), and centrifuged (2,000 rpm, 10 min., 4° C.) by a reduced performance centrifuge (TOMY, RL-101). The supernatant was disposed, and the pellets in the four tubes were each suspended with 10 ml EDTA/PBS(−) and collected into one tube (Becton Dickinson, #352070). The pellet was further centrifuged (2,000 rpm, 10 min., 4° C.). The resultant pellet was suspended with 20 ml ice-cooled homogenizer buffer [10 mM NaHCO3, 2 mM EGTA, 0.2 mM magnesium acetate, 10 μg/ml Leupeptin (Peptide Institute, Inc., #4041), 10 μg/ml E-64 (Peptide Institute, Inc., # 4096), 100 μg/ml o-phenanthroline (Dojindo Laboratories), 90 μg/ml PMSF (Wako Pure Chemical Industries, Ltd.), 10 μg/ml Pepstatin A (Peptide Institute, Inc., #4397), pH7.3]. The cell suspension was homogenized 3 times, each for 30 seconds, using a Polytron homogenizer. The resultant homogenate was centrifuged (2,500 rpm, 10 min, 4° C.) using a high performance refrigerated centrifuge (Hitachi, Ltd., CR26H). The supernatant was recovered into a super-centrifuge tube, and super-centrifuged (30,000 rpm, 60 min, 4° C.) using a super-centrifuge (Hitachi, Ltd., SCP70H). 3 ml homogenizer buffer was added to the resultant pellet, and the pellet was suspended by pipetting. 3 ml glycerol (Wako Pure Chemical Industries, Ltd.) was added to the resultant suspension and diluted 2-folds. The resultant substance was used as a cell membrane fraction of the h175 KB34 cells. Each […] of the membrane fraction was put into a 1.5 ml tube (Eppendorf, #0030120.086), stored in a freezer (−30 C) so as not to be frozen, and used for a binding assay.
An assay buffer was prepared on the day of the test by adding, to each 100 ml of an assay basic buffer [20 mM Tris, 2.5 mM Magnesium Acetate, 2 mM EGTA, pH 7.4], 1 mg Leupeptin (Peptide Institute, Inc., 4041), 1 mg E-64 (Peptide Institute, Inc., 4096), 10 mg o-phenanthroline (Dojindo Laboratories), 9 mg PMSF (Wako Pure Chemical Industries, Ltd.) and 1 mg Pepstatin A (Peptide Institute, Inc., 4397). The prepared assay buffer was stored at 4° C. until being used. When the measurement was to be performed with no BSA, the above-described assay buffer was used. […]

T1 sequence (Q969F8 whole entry L364H): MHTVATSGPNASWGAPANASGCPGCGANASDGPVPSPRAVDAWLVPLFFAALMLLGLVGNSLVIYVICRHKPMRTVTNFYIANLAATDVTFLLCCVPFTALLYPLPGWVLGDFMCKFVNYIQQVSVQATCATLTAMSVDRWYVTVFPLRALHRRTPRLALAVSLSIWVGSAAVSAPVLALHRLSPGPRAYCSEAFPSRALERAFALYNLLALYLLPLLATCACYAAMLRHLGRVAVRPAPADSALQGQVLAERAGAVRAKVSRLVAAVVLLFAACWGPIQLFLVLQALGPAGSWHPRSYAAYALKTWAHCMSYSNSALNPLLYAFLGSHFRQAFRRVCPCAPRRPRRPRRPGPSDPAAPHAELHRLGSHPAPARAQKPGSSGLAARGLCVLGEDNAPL

Row | Compound | IC50 [µM]
1 | N#Cc1c(-c2cccc(NC(=O)[C@H](N)Cc3c[nH]cn3)c2)cc(-c2ccc(F)cc2O)nc1NC(=O)c1ccco1 [Example 261, N-{3-[3-cyano-6-(4-fluoro-2-hydroxyphenyl)-2-(2-furoylamino)pyridin-4-yl]phenyl}-D-histidinamide hydrochloride] | ≤ 10
2 | C[C@H](N)CNC(=O)c1cccc(-c2cc(-c3ccc(Cl)cc3O)nc(NC(=O)c3ccno3)c2C#N)c1 [Example 268, N-[4-[3-({[(2S)-2-aminopropyl]amino}carbonyl)phenyl]-6-(4-chloro-2-hydroxyphenyl)-3-cyanopyridin-2-yl]isoxazole-5-carboxamide hydrochloride] | ≤ 10
3 | N#Cc1c(-c2ccnc(C(=O)NCCN)c2)cc(-c2ccccc2O)nc1NC(=O)c1ccco1 [Example 272, N-(2-aminoethyl)-3′-cyano-2′-(2-furoylamino)-6′-(2-hydroxyphenyl)-4,4′-bipyridine-2-carboxamide dihydrochloride] | ≤ 10
4 | CC(N)CC(=O)Nc1cccc(-c2cc(-c3ccc(Cl)cc3O)nc(NC(=O)c3cccn3C)c2C#N)c1 (stereo not shown) [Example 274, N-[4-{3-[(3-aminobutanoyl)amino]phenyl}-6-(4-chloro-2-hydroxyphenyl)-3-cyanopyridin-2-yl]-1-methyl-1H-pyrrole-2-carboxamide hydrochloride] | ≤ 10
5 | COc1c(NC(=O)OC(C)(C)C)cccc1-c1cc(-c2ccccc2O)nc(NC(=O)c2ccco2)c1C#N [Example 275, tert-butyl{3-[3-cyano-2-(2-furoylamino)-6-(2-hydroxyphenyl)pyridin-4-yl]-2-methoxyphenyl}carbamate] | ≤ 10
6 | COc1c(NC(=O)CCN)cccc1-c1cc(-c2ccccc2O)nc(NC(=O)c2ccco2)c1C#N [Example 276, N-[4-[3-(β-alanylamino)-2-methoxyphenyl]-3-cyano-6-(2-hydroxyphenyl)pyridin-2-yl]-2-furamide hydrochloride] | ≤ 10
7 | N#Cc1c(N2CCCC(C(=O)NCCN)C2)cc(-c2ccccc2O)nc1NC(=O)c1ccco1 (stereo not shown) [Example 288, N-(2-aminoethyl)-1-[3-cyano-2-(2-furoylamino)-6-(2-hydroxyphenyl)pyridin-4-yl]piperidine-3-carboxamide hydrochloride] | ≤ 10
8 | Cl.N#Cc1c(-c2cccc(NC(=O)CC3CCCCN3)c2)cc(-c2ccc(F)cc2O)nc1NC(=O)c1ccco1 (stereo not shown) [Example 290, hydrochloride] | ≤ 10
9 | CN(C)CC(=O)Nc1cccc(-c2cc(-c3ccc(F)cc3O)nc(NC(=O)c3ccco3)c2CN(C)C)c1 [Example 300, N-[3-[(dimethylamino)methyl]-4-{3-[(N,N-dimethylglycyl)amino]phenyl}-6-(4-fluoro-2-hydroxyphenyl)pyridin-2-yl]-2-furamide dihydrochloride] | ≤ 10
10 | N#Cc1c(-c2cccc(NC(=O)[C@@H](N)CN)c2)cc(-c2ccc(F)cc2O)nc1NC(=O)c1ccco1 [Example 302, N-[4-{3-[(3-amino-L-alanyl)amino]phenyl}-3-cyano-6-(4-fluoro-2-hydroxyphenyl)pyridin-2-yl]-2-furamide dihydrochloride] | ≤ 10
11 | CCN(CC)CCN(CC)c1cccc(-c2cc(-c3ccc(F)cc3O)nc(NC(=O)c3ccco3)c2C#N)c1 [Example 304, N-[3-cyano-4-{3-[[2-(diethylamino)ethyl] (ethyl)amino]phenyl}-6-(4-fluoro-2-hydroxyphenyl)pyridin-2-yl]-2-furamide dihydrochloride] | ≤ 10
12 | CNCC(=O)Nc1cccc(-c2cc(-c3ccc(F)cc3O)nc(NC(=O)c3ccco3)c2C#N)c1 [Example 312, N-(3-cyano-6-(4-fluoro-2-hydroxyphenyl)-4-{3-[(N-methylglycyl)amino]phenyl}pyridin-2-yl)-2-furamide hydrochloride] | ≤ 10

The next lines start with the values.

Row | IC50 [µM] | Compound
13 | ≤ 10 | COc1ccc(-c2cc(-c3cccc(NC(=O)CCN)c3)c(C#N)c(NC(=O)c3ccccc3)n2)c(O)c1 [Example 50, N-{4-[3-(β-alanylamino)phenyl]-3-cyano-6-(2-hydroxy-4-methoxyphenyl)pyridin-2-yl}benzamide trifluoroacetate]
14 | ≤ 10 | N#Cc1c(-c2cccc(NC(=O)CCN)c2)cc(-c2ccc(Cl)cc2O)nc1NC(=O)c1ccccc1 [Example 51, N-{4-[3-(β-alanylamino)phenyl]-6-(4-chloro-2-hydroxyphenyl)-3-cyanopyridin-2-yl}benzamide trifluoroacetate]
15 | ≤ 10 | N#Cc1c(-c2cccc(NC(=O)CCN)c2)cc(-c2ccc(Cl)cc2O)nc1NC(=O)c1cccs1 [Example 56, N-{4-[3-(β-alanylamino)phenyl]-6-(4-chloro-2-hydroxyphenyl)-3-cyanopyridin-2-yl}thiophene-2-carboxamide trifluoroacetate]
16 | ≤ 10 | N#Cc1c(-c2cccc(NC(=O)CCN)c2)cc(-c2ccc(F)cc2O)nc1NC(=O)c1cccs1 [Example 58, N-{4-[3-(β-alanylamino)phenyl]-3-cyano-6-(4-fluoro-2-hydroxyphenyl)pyridin-2-yl}thiophene-2-carboxamide hydrochloride]
17 | ≤ 10 | N#Cc1c(-c2cccc(C(=O)NCCN)c2)cc(-c2ccc(F)cc2O)nc1NC(=O)c1ccco1 [Example 66, N-[4-(3-{[(2-aminoethyl)amino]carbonyl}phenyl)-3-cyano-6-(4-fluoro-2-hydroxyphenyl)pyridin-2-yl]-2-furamide hydrochloride]
18 | ≤ 10 | N#Cc1c(-c2cccc(NC(=O)[C@@H](N)Cc3cnc[nH]3)c2)cc(-c2ccc(Cl)cc2O)nc1NC(=O)c1ccco1 [Example 243, N-{3-[6-(4-chloro-2-hydroxyphenyl)-3-cyano-2-(2-furoylamino)pyridin-4-yl]phenyl}-L-histidinamide dihydrochloride]
19 | ≤ 10 | N#Cc1c(-c2cccc(NC(=O)CCN)c2)cc(-c2ccc(Cl)cc2O)nc1NC(=O)c1ccno1 [Example 251, N-[4-[3-(β-alanylamino)phenyl]-6-(4-chloro-2-hydroxyphenyl)-3-cyanopyridin-2-yl]isoxazole-5-carboxamide hydrochloride]
20 | ≤ 10 | N#Cc1c(-c2cccc(NC(=O)[C@H](N)Cc3cnc[nH]3)c2)cc(-c2ccc(Cl)cc2O)nc1NC(=O)c1ccco1 [Example 253, N-{3-[6-(4-chloro-2-hydroxyphenyl)-3-cyano-2-(2-furoylamino)pyridin-4-yl]phenyl}-D-histidinamide dihydrochloride]
21 | ≤ 10 | N#Cc1c(-c2cccc(NC(=O)CCN)c2)cc(-c2ccc(Cl)cc2O)nc1NC(=O)c1ccoc1 [Example 254, N-[4-[3-(β-alanylamino)phenyl]-6-(4-chloro-2-hydroxyphenyl)-3-cyanopyridin-2-yl]-3-furamide hydrochloride]
22 | ≤ 10 | COc1ccc(C(=O)Nc2nc(-c3ccc(Cl)cc3O)cc(-c3cccc(NC(=O)CCN)c3)c2C#N)c(OC)c1 [Example 255, N-[4-[3-(β-alanylamino)phenyl]-6-(4-chloro-2-hydroxyphenyl)-3-cyanopyridin-2-yl]-2,4-dimethoxybenzamide dihydrochloride]

Reference: patent US20090156646A1, “PYRIDYLPHENOL COMPOUND AND USE THEREOF” (TAKEDA PHARMACEUTICAL COMPANY LIMITED, priority 2005, published 2009)
